Experiments:
DLD1 WT cells = experiment: DLD1 viability assay (CellTiter-Glo, 7 days), DLD1 WT; assay type: cell-based; conditions: Homo sapiens, DLD-1, 168 h
Method: (§1) The seeding densities are pre-determined from the growth curve kinetics performed to ensure log linear phase of cell growth for these 2 cell lines. These assay plates are then placed in the incubator at 37° C., 5% CO2, relative humidity>90% for a few hours before addition of test compounds. Compounds are dispensed using the Tecan HPD300 or Echo based on the plate map in the appropriate wells of the 384-well plates. […] After addition of the test compounds, the plates are incubated at 37° C., 5% CO2, relative humidity>90% for 7 days. CellTiter-Glo (Promega Cat. No. G7573), ATP detection reagent is prepared according to manufacturer's specifications. Cell assay plates are removed from incubator and bring to room temperature (RT) by letting them sit at bench top for at least 15 min. Using the MultiDrop liquid handler or a multichannel pipette, 35 μL/well of CTG is added and the plates are then placed shakes for 5 seconds, RT. These plates are then incubated for 30 minutes in the dark at RT before measuring luminescence using Spectramax/Enspire/Ensight/Envision/PheraSTAR.

DLD1 BRCA2 (−/−) cells = experiment: DLD1 viability assay (CellTiter-Glo, 7 days), DLD1 BRCA2 (−/−); assay type: cell-based; conditions: Homo sapiens, DLD-1, 168 h, read-out: Viability IC50 (μM) DLD1 BRCA2 null
Method: as §1

| Compound | IC50 (DLD1 WT cells) [µM] | IC50 (DLD1 BRCA2 (−/−) cells) [µM] |
| --- | --- | --- |
| COc1cnc(Cl)cc1-c1cc(C)ncc1C(=O)Nc1nc2ncc(N3CCC(C)(O)C(F)C3)nc2s1 (stereo not shown) [Example 465, 2′-chloro-N-(6-(3-fluoro-4-hydroxy-4-methylpiperidin-1-yl)thiazolo[4,5-b]pyrazin-2-yl)-5′-methoxy-6-methyl-[4,4′-bipyridine]-3-carboxamide] | > 10 | 0.001 to 0.1 |
| COc1cnc(Cl)cc1-c1cc(C)ncc1C(=O)Nc1nc2ncc(N3CCC(C4CC4)CC3)nc2s1 [Example 466, 2′-chloro-N-(6-(4-cyclopropylpiperidin-1-yl)thiazolo[4,5-b]pyrazin-2-yl)-5′-methoxy-6-methyl-[4,4′-bipyridine]-3-carboxamide] | 7.5 to 10 | 0.001 to 0.1 |
| COc1cnc(Cl)cc1-c1cc(C)ncc1C(=O)Nc1nc2ncc(N3CCC(CC#N)CC3)nc2s1 [Example 467, 2′-chloro-N-(6-(4-(cyanomethyl)piperidin-1-yl)thiazolo[4,5-b]pyrazin-2-yl)-5′-methoxy-6-methyl-[4,4′-bipyridine]-3-carboxamide] | > 10 | 0.001 to 0.1 |
| COc1cnc(Cl)cc1-c1cc(C)ncc1C(=O)Nc1nc2ncc(N3CCN(CC(F)(F)F)CC3)nc2s1 [Example 471, 2′-chloro-5′-methoxy-6-methyl-N-(6-(4-(2,2,2-trifluoroethyl)piperazin-1-yl)thiazolo[4,5-b]pyrazin-2-yl)-[4,4′-bipyridine]-3-carboxamide] | > 10 | 0.001 to 0.1 |
| COc1cnc(Cl)cc1-c1cc(C)ncc1C(=O)Nc1nc2ncc(N3CCC(C(C)(C)O)CC3)nc2s1 [Example 480, 2′-chloro-N-(6-(4-(2-hydroxypropan-2-yl)piperidin-1-yl)thiazolo[4,5-b]pyrazin-2-yl)-5′-methoxy-6-methyl-[4,4′-bipyridine]-3-carboxamide] | > 10 | 0.001 to 0.1 |
| COc1cnc(Cl)cc1-c1cc(C)ncc1C(=O)Nc1nc2ncc(N3CCC4(CCO4)CC3)nc2s1 [Example 482, N-(6-(1-oxa-7-azaspiro[3.5]nonan-7-yl)thiazolo[4,5-b]pyrazin-2-yl)-2′-chloro-5′-methoxy-6-methyl-[4,4′-bipyridine]-3-carboxamide] | > 10 | 0.001 to 0.1 |

Second part, the compound after the results:

| IC50 (DLD1 WT cells) [µM] | IC50 (DLD1 BRCA2 (−/−) cells) [µM] | Compound |
| --- | --- | --- |
| 5 to 7.5 | 0.001 to 0.1 | COc1cnc(Cl)cc1-c1cc(C)ncc1C(=O)Nc1nc2ncc(N3CCC(C(C)(C)C#N)CC3)nc2s1 [Example 468, 2′-chloro-N-(6-(4-(2-cyanopropan-2-yl)piperidin-1-yl)thiazolo[4,5-b]pyrazin-2-yl)-5′-methoxy-6-methyl-[4,4′-bipyridine]-3-carboxamide] |
| 5 to 7.5 | 0.001 to 0.1 | COc1cnc(Cl)cc1-c1cc(C)ncc1C(=O)Nc1nc2ncc(N3CCC(C(F)(F)F)CC3)nc2s1 [Example 472, 2′-chloro-5′-methoxy-6-methyl-N-(6-(4-(trifluoromethyl)piperidin-1-yl)thiazolo[4,5-b]pyrazin-2-yl)-[4,4′-bipyridine]-3-carboxamide] |
| 7.5 to 10 | 0.001 to 0.1 | COc1cnc(Cl)cc1-c1cc(C)ncc1C(=O)Nc1nc2ncc(N3CCC(C)CC3)nc2s1 [Example 474, 2′-chloro-5′-methoxy-6-methyl-N-(6-(4-methylpiperidin-1-yl)thiazolo[4,5-b]pyrazin-2-yl)-[4,4′-bipyridine]-3-carboxamide] |
| > 10 | 0.001 to 0.1 | COc1cnc(Cl)cc1-c1cc(C)ncc1C(=O)Nc1nc2ncc(N3CCC(C#N)CC3)nc2s1 [Example 475, 2′-chloro-N-(6-(4-cyanopiperidin-1-yl)thiazolo[4,5-b]pyrazin-2-yl)-5′-methoxy-6-methyl-[4,4′-bipyridine]-3-carboxamide] |
| 7.5 to 10 | 0.25 to 0.5 | COc1cnc(Cl)cc1-c1cc(C)ncc1C(=O)Nc1nc2ncc(N3CCC[C@H](C)C3)nc2s1 [Example 481, (S)-2′-chloro-5′-methoxy-6-methyl-N-(6-(3-methylpiperidin-1-yl)thiazolo[4,5-b]pyrazin-2-yl)-[4,4′-bipyridine]-3-carboxamide] |
